The supplement of paper PMC10307832

Key:
Assay in all cases: relative viability (nuclei count vs DMSO), 5 days (fraction); higher = more cells survive
Idelalisib + Foretinib = compound: CC[C@H](Nc1ncnc2[nH]cnc12)c1nc2cccc(F)c2c(=O)n1-c1ccccc1 [Idelalisib] + COc1cc2c(Oc3ccc(NC(=O)C4(C(=O)Nc5ccc(F)cc5)CC4)cc3F)ccnc2cc1OCCCN1CCOCC1 [Foretinib] (partner 0.25 µM)
Summary of the method: (§1)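 Lung cancer cell lines in 1536-well plates were dosed by pin tool the day after seeding, either with one drug alone or with a fixed anchor-drug dose plus five library-drug doses (not always all listed) in √10 steps. After 5 days, cells were fixed and their nuclei stained in one step (final 0.05% Triton X-100, 1% formaldehyde, 1 ug/ml Hoechst), then counted on 4× images. Relative viability is the nuclei count in treated wells divided by that in vehicle wells. Values are medians of duplicate plates.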

Pemetrexed + Tozasertib = compound: Nc1nc2[nH]cc(CCc3ccc(C(=O)N[C@@H](CCC(=O)O)C(=O)O)cc3)c2c(=O)[nH]1 [Pemetrexed] + Cc1cc(Nc2cc(N3CCN(C)CC3)nc(Sc3ccc(NC(=O)C4CC4)cc3)n2)n[nH]1 [Tozasertib] (partner 0.1 µM)
Summary of the method: as §1

Pemetrexed + Trametinib = compound: Nc1nc2[nH]cc(CCc3ccc(C(=O)N[C@@H](CCC(=O)O)C(=O)O)cc3)c2c(=O)[nH]1 [Pemetrexed] + CC(=O)Nc1cccc(-n2c(=O)n(C3CC3)c(=O)c3c(Nc4ccc(I)cc4F)n(C)c(=O)c(C)c32)c1 [Trametinib] (partner 0.02 µM)
Summary of the method: as §1

Pemetrexed + Olaparib = compound: Nc1nc2[nH]cc(CCc3ccc(C(=O)N[C@@H](CCC(=O)O)C(=O)O)cc3)c2c(=O)[nH]1 [Pemetrexed] + O=C(c1cc(Cc2n[nH]c(=O)c3ccccc23)ccc1F)N1CCN(C(=O)C2CC2)CC1 [Olaparib] (partner 8 µM)
Summary of the method: as §1

Cell Line	relative viability (Idelalisib + Foretinib; first compound 0.04 µM)	relative viability (Idelalisib + Foretinib; first compound 0.1265 µM)	relative viability (Idelalisib + Foretinib; first compound 0.4 µM)	relative viability (Idelalisib + Foretinib; first compound 1.265 µM)	relative viability (Idelalisib + Foretinib; first compound 4 µM)	relative viability (Pemetrexed + Tozasertib; first compound 0.002 µM)	relative viability (Pemetrexed + Tozasertib; first compound 0.006325 µM)	relative viability (Pemetrexed + Tozasertib; first compound 0.02 µM)	relative viability (Pemetrexed + Tozasertib; first compound 0.06325 µM)	relative viability (Pemetrexed + Tozasertib; first compound 0.2 µM)	relative viability (Pemetrexed + Trametinib; first compound 0.002 µM)	relative viability (Pemetrexed + Trametinib; first compound 0.006325 µM)	relative viability (Pemetrexed + Trametinib; first compound 0.02 µM)	relative viability (Pemetrexed + Trametinib; first compound 0.06325 µM)	relative viability (Pemetrexed + Trametinib; first compound 0.2 µM)	relative viability (Pemetrexed + Olaparib; first compound 0.002 µM)	relative viability (Pemetrexed + Olaparib; first compound 0.006325 µM)	relative viability (Pemetrexed + Olaparib; first compound 0.02 µM)	relative viability (Pemetrexed + Olaparib; first compound 0.06325 µM)	relative viability (Pemetrexed + Olaparib; first compound 0.2 µM)
RERF-LC-KJ	0.879	0.953	0.809	0.871	0.768	0.52	0.477	0.526	0.475	0.325	0.842	0.856	0.909	0.736	0.639	0.956	0.843	0.973	0.865	0.612
NCI-H647	1.18	1.35		0.895	0.746	0.309	0.246	0.297	0.208	0.128	0.52	0.436	0.478	0.406	0.17	0.585	0.67	0.765	0.465	0.163
NCI-H1734	0.911	0.911	0.836	0.957	0.642	0.249	0.221	0.268	0.284	0.248	0.603	0.623	0.679	0.627	0.524	0.576	0.615	0.741	0.619	0.601
SK-LU-1	0.816	0.765	0.811	0.693	0.766	0.303	0.324	0.374	0.378	0.333	0.412	0.478	0.61	0.402	0.424	0.405	0.5	0.58	0.51	0.455
NCI-H1395	1.02	0.959	0.976	0.963	0.707	0.783	0.721	0.826	0.717	0.79	0.932	1	1.13	0.954	1.03	0.427	0.421	0.5	0.41	0.426
COR-L23	1.12	1.02	0.982	1.08	0.898	0.229	0.196	0.197	0.12	0.105	0.581	0.569	0.733	0.206	0.152	0.28	0.406	0.36	0.253	0.152
EMC-BAC-2	0.972	0.988	0.963	0.868	0.963	0.327	0.255	0.296	0.278	0.244	0.826	0.755	0.986	0.807	0.618	0.455	0.458	0.5	0.493	0.497
NCI-H1355	0.992	0.946	0.907	0.868	0.823	0.532	0.516	0.554	0.632	0.586	0.404	0.441	0.392	0.416	0.418	0.676	0.709	0.731	0.754	0.691
NCI-H1944	1	0.877	0.752	0.804	0.759		0.306	0.269	0.241	0.242	0.354	0.449	0.45	0.407	0.38	0.317	0.368	0.395	0.393	0.402
HOP-62	1.15	1.05	1.15	1.15	1.1	0.334	0.306	0.409	0.368	0.349	0.431	0.389	0.386	0.399	0.327		0.443	0.55	0.391	0.387
NCI-H2009	1.17	1.21	1.16	1.23	1.14	0.707	0.697	0.855	0.71	0.694	0.303	0.256	0.316	0.249	0.27	0.648	0.689	0.714	0.651	0.661
